The values that follow come from paper PMC12147714 (FEMS Microbiology Letters, 2025).

In one data set the test system is PAO1 producing VIM-1. Kind of data set: MIC and checkerboard by broth microdilution, recombinant strain. The data set is classed as cell-based, Pseudomonas aeruginosa. The following applies: antibiotic alone. The source says:
(§1) Pseudomonas aeruginosa isolate, PAO1, was used alongside its isogenic counterpart, PAO1 TnoprD, which lacks a functional OprD porin (Held et al. [2012]). β-lactamases, blaIMP-1, blaIMP-10, blaIMP-13, blaNDM-1, blaSPM-1, blaVIM-1, blaVIM-2, and blaKPC-2, had previously been cloned into the pUCP24 shuttle vector (Bouvier et al. [2025]), and were transformed by electroporation into both PAO1 and PAO1 TnoprD.
(§2) . MICs of DMSA, CAZ, FEP and checkerboards for the combinations, CAZ/DMSA and FEP/DMSA, were performed for all clinical isolates. All susceptibility testing results were interpreted according to CLSI guidelines (CLSI [2023]). The fractional inhibitory concentration index (FICI) was calculated and interpreted as follows: the MIC of drug A in combination/the MIC of drug A alone + the MIC of drug B in combination/the MIC drug B alone. FICI ≤ 0.5 = synergy; 0.5 < FICI ≤ 1 = additive; FICI 1 < FICI < 2 = indifference, and FICI ≥ 2 = antagonism. All susceptibility testing/checkerboard assays were performed in triplicate.

Data set [1] deals with PAO1 TnoprD producing SPM-1. The data set is described as above. The data set is classed as cell-based, Pseudomonas aeruginosa. The following applies: SPM-1 TnoprD; antibiotic alone.
Source text: as §1, §2

Data set [2] deals with PAO1 TnoprD producing IMP-13. Described as above. The following applies: IMP-13 TnoprD; antibiotic alone. The data set is classed as cell-based, Pseudomonas aeruginosa.
Source text: as §1, §2

In another data set the test system is PAO1 producing IMP-1. The data set is described as above. The data set is classed as cell-based, Pseudomonas aeruginosa. The following applies: antibiotic alone.
Source text: as §1, §2

Data set [3] has as its system PAO1 TnoprD producing VIM-2. The description is as above. Format: cell-based, Pseudomonas aeruginosa. The following applies: VIM-2 TnoprD; antibiotic alone.
Source text: as §1, §2

Data set [4] has as its system PAO1 TnoprD producing IMP-10. The data set is described as above. Format: cell-based, Pseudomonas aeruginosa. The following applies: IMP-10 TnoprD; antibiotic alone.
Source text: as §1, §2

The test system of another data set is PAO1 producing VIM-2. Described as above. The following applies: antibiotic alone. Format: cell-based, Pseudomonas aeruginosa.
Source text: as §1, §2

The test system of the next data set is PAO1 producing SPM-1. Described as above. Format: cell-based, Pseudomonas aeruginosa. The following applies: antibiotic alone.
Source text: as §1, §2

A further data set relates to PAO1 producing IMP-13. The description is as above. Format: cell-based, Pseudomonas aeruginosa. The following applies: antibiotic alone.
Source text: as §1, §2

Data set [5] deals with PAO1 TnoprD producing NDM-1. The data set is described as above. The data set is classed as cell-based, Pseudomonas aeruginosa. The following applies: NDM-1 TnoprD; antibiotic alone. The protocol: (§3) The fractional inhibitory concentration index (FICI) was calculated and interpreted as follows: the MIC of drug A in combination/the MIC of drug A alone + the MIC of drug B in combination/the MIC drug B alone. FICI ≤ 0.5 = synergy; 0.5 < FICI ≤ 1 = additive; FICI 1 < FICI < 2 = indifference, and FICI ≥ 2 = antagonism. All susceptibility testing/checkerboard assays were performed in triplicate.

The test system of the next data set is PAO1 producing IMP-10. Described as above. Format: cell-based, Pseudomonas aeruginosa. The following applies: antibiotic alone. The protocol: as §3
For data set [6], the system named is PAO1 TnoprD producing IMP-1. Described as above. Format: cell-based, Pseudomonas aeruginosa. The following applies: IMP-1 TnoprD; antibiotic alone. The protocol: as §3
For the next data set, the system named is PAO1 producing NDM-1. The description is as above. Format: cell-based, Pseudomonas aeruginosa. The following applies: antibiotic alone. Here is the method:
as §3

In data set [7] the test system is PAO1 TnoprD producing VIM-1. The data set is described as above. Format: cell-based, Pseudomonas aeruginosa. The following applies: VIM-1 TnoprD; antibiotic alone. Here is the method: as §3
In the next data set the test system is MBL-producing E. coli. The following applies: high concentrations, ref Cheminet et al. 2020, cited from earlier work.
A further data set has as its target VIM-1 (Pseudomonas aeruginosa, UniProt A0A0F7KYQ8). Kind of data set: IC50, inhibition of cephalothin hydrolysis by crude extract. The following applies: VIM-1; 100 μM cephalothin, pH 7.0.
For a further data set, the target named is IMP-10 (Serratia marcescens, UniProt P52699, V49F). The description is as above. The following applies: IMP-10; 100 μM cephalothin, pH 7.0.
Sequence of IMP-10 (P52699 19-246 V49F): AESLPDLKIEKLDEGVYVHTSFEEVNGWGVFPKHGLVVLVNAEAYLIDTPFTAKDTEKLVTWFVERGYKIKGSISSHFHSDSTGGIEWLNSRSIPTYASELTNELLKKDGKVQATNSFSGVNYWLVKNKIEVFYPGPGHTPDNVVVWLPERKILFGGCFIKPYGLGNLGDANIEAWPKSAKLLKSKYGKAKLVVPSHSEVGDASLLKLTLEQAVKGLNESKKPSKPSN
The target of another data set is SPM-1 (Pseudomonas aeruginosa, UniProt Q8G9Q0). Described as above. The following applies: SPM-1; 100 μM cephalothin, pH 7.0.
Sequence of SPM-1 (Q8G9Q0 entry or part of it): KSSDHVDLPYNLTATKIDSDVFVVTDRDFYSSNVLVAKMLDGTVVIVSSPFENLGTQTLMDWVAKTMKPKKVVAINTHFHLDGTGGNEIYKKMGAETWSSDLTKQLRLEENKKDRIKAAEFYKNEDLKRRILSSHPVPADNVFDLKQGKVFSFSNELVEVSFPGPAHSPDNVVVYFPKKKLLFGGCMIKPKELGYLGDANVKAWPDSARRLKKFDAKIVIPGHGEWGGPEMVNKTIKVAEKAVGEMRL
On the set-up of data set [8]: method as in van Eijkeren et al. 2016. The following applies: 30 mg/kg dose; ref van Eijkeren et al. 2016; cited from earlier work.
A further data set deals with VIM-2 (Escherichia coli, UniProt Q5U7L7). Kind of data set: IC50, inhibition of cephalothin hydrolysis by crude extract. The following applies: VIM-2; 100 μM cephalothin, pH 7.0.
In another data set the target is NDM-1 (Klebsiella pneumoniae, UniProt C7C422). The data set is described as above. The following applies: 100 μM cephalothin, pH 7.0.
Sequence of NDM-1 (C7C422 29-270 limits assumed): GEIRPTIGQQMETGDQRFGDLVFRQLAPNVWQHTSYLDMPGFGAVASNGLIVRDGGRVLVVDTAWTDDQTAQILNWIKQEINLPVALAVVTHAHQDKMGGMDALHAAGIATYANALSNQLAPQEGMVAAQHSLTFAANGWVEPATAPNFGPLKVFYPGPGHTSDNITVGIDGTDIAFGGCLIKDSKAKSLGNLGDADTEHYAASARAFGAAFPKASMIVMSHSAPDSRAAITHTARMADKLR
Another data set concerns the target IMP-13 (Pseudomonas aeruginosa, UniProt Q7WYA8). Described as above. The following applies: IMP-13; 100 μM cephalothin, pH 7.0.
The subject of data set [9] is MBL-producers in isogenic strains of P. aeruginosa. Details: method as in Bouvier et al. 2025. The following applies: ref Bouvier et al. 2025, cited from earlier work.

Sequence of IMP-13 (Q7WYA8 21-246): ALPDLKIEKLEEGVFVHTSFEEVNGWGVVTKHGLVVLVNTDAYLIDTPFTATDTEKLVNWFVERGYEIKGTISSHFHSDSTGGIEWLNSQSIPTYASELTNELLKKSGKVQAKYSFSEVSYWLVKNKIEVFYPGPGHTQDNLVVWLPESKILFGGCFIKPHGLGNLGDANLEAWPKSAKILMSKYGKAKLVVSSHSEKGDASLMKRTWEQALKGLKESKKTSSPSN

With `CC(C)(O/N=C(\C(=O)N[C@@H]1C(=O)N2C(C(=O)[O-])=C(C[n+]3ccccc3)CS[C@H]12)c1csc(N)n1)C(=O)O` [CAZ, ceftazidime], the MIC came to 2050 µg/mL in the data set with PAO1 producing VIM-1; 512 µg/mL in data set [1]; 64 µg/mL in data set [2]; 1020 µg/mL with PAO1 producing IMP-1; 8 µg/mL in data set [3]; 2050 µg/mL in data set [4]. The MIC with PAO1 producing VIM-2 stood at 8 µg/mL; with PAO1 producing SPM-1, 512 µg/mL; in the data set on PAO1 producing IMP-13, 64 µg/mL; in [5], 4100 µg/mL; in the data set on PAO1 producing IMP-10, 2050 µg/mL; in data set [6], 1020 µg/mL. For the same compound, the MIC with PAO1 producing NDM-1 worked out at 4100 µg/mL; in data set [7] it was 2050 µg/mL.
In the case of `O=C(O)[C@@H](S)[C@@H](S)C(=O)O` [DMSA, meso-dimercaptosuccinic acid], the “efficacy in mouse peritonitis model” value in the data set with MBL-producing E. coli (MBL-producing E. coli) is recorded as “effective”. The “tolerability in mouse peritonitis model” value in the data set with MBL-producing E. coli is “well-tolerated”. Further, the 50% inhibitory concentration (IC50) against VIM-1 is greater than 1 mM; against IMP-10 it was 50 µM; at SPM-1 it was greater than 1 mM; against VIM-2, greater than 1 mM; against NDM-1, greater than 1 mM; against IMP-13 it was 350 µM. Moreover, the tolerability result in [8] is “well tolerated”. For the same compound, the “effect on carbapenem (IPM and MEM) MICs” value in data set [9] (DMSA at 3 mM) is recorded as “significantly reduce”. For the same compound, the “type of interaction with carbapenems” value in data set [9] is reported as “additive”.
